Test results published in patent US6696432B1, “Combination of dehydroepiandrosterone and aromatase inhibitors and use of this combination to produce a medicament for treating relative and absolute androgen deficiency in men” (Schering Aktiengesellschaft, priority 1996, dated 2004).

How the values were obtained:
patients with BPH [1] = assay: 24-week four-way study of atamestane versus placebo, testosterone serum concentration; assay type: in vivo, human; conditions: for Testosterone Serum Concentration Δ % (median ± SD): 24 weeks
patients with BPH [2] = assay: 48-week atamestane treatment (400 mg vs placebo), testosterone serum concentration; assay type: in vivo, human; conditions: daily dose 400 mg
Excerpt: (§1) Tables 3 and 4 show the results after a 48-week treatment.

patients with BPH [3] = assay: 48-week atamestane treatment (100 mg, 300 mg vs placebo), testosterone serum concentration; assay type: in vivo, human; conditions: for Testosterone Serum Concentration Δ % (X ± SD): 48 weeks
Excerpt: as §1

[4] = test system: men with BPH (average age above 60 years); assay: Testosterone/estradiol (T/E2) ratio before and after atamestane, 4 clinical studies, 7 treatment groups; assay type: in vivo, human
Method: Gradual lowering of the estrogen concentration induces a counterregulatory stimulation of androgen synthesis. To a certain extent, there is an endogenic testosterone substitution, by which the androgen/estrogen balance is again brought back to the “youthful” range. This substantiates the results of the longer-term treatment of older men (average age above 60 years) with the selective aromatase inhibitor atamestane.
(§2) In several clinical studies, atamestane was administered at varying dosages and over periods of up to 48 weeks to men in this age group to treat an existing BPH. […] Table 5 provides the testosterone/estrogen ratio before and after the administration of atamestane for patient populations from 4 studies and 7 treatment groups.
Assuming that the testosterone dominance that was reduced by 30-50% in the age group of patients over 60 years compared to the younger years (relative androgen deficiency) caused the symptoms of “male menopause,” the goal is thus to restore the original “balance of power” between androgens and estrogens by administering a preferably selective aromatase inhibitor by stimulating endogenic testosterone substitution without the necessity of supplying androgens exogenically. Based on the understanding that the ratio prevailing in age is the result of a 30-50% reduction compared to the youthful values, i.e., is always 50-70% of the previous value, the corresponding “youthful” previous value can be calculated for each individual patient. A patient with a testosterone/estradiol ratio of 230:1 must accordingly be adjusted to a new balance in the range between […] to 460:1, so that a preceding 30 or 50% reduction is compensated for.

patients with BPH [5] = assay: Longer-term clinical studies with atamestane in BPH patients, hormone levels; assay type: in vivo, human
Method: as §2
The administration of atamestane consistently results in a resetting of the testosterone/estradiol balance in favor of the androgenic component. This action was detectable over the entire observation period up to a maximum of 48 weeks of treatment.

[6] = test system: patients with prostate cancer; conditions: pharmacological doses; cited from earlier work

CC1=CC(=O)C=C2CC[C@@H]3[C@H](CC[C@]4(C)C(=O)CC[C@@H]34)[C@@]12C [atamestane, 1-Methyl-androsta-1,4-diene-3,17-dione]
Testosterone Serum Concentration Δ % (median ± SD) (patients with BPH [1]; daily dose 100 mg): 29.57 ± 34.70% | Testosterone Serum Concentration After 24 Weeks (patients with BPH [1]; daily dose 100 mg, previous value 4.41): 5.57 ng/mL | Testosterone Serum Concentration Δ % (median ± SD) (patients with BPH [1]; daily dose 300 mg): 40.88 ± 156.12% | Testosterone Serum Concentration After 24 Weeks (patients with BPH [1]; daily dose 300 mg, previous value 4.50): 6.15 ng/mL | Testosterone Serum Concentration Δ % (median ± SD) (patients with BPH [1]; daily dose 600 mg): 41.19 ± 37.62% | Testosterone Serum Concentration After 24 Weeks (patients with BPH [1]; daily dose 600 mg, previous value 3.78): 5.40 ng/mL | Testosterone Serum Concentration Δ % (X ± SD) (patients with BPH [2]; 48 weeks): 42.9 ± 53.5% | Testosterone Serum Concentration After 48 Weeks (patients with BPH [2]; previous value 4.2): 5.4 ng/mL | Testosterone Serum Concentration Δ % (X ± SD) (patients with BPH [3]; daily dose 100 mg): 19.0 ± 36.8% | Testosterone Serum Concentration After 48 Weeks (patients with BPH [3]; daily dose 100 mg, previous value 5.1): 5.9 ng/mL | Testosterone Serum Concentration Δ % (X ± SD) (patients with BPH [3]; daily dose 300 mg): 41.7 ± 46.4% | Testosterone Serum Concentration After 48 Weeks (patients with BPH [3]; daily dose 300 mg, previous value 4.7): 6.6 ng/mL | T/E2 Ratio % Δ ([4]; 100 mg, 24 weeks): +48% | T/E2 Ratio % Δ ([4]; 100 mg, 48 weeks): +41% | T/E2 Ratio % Δ ([4]; 200 mg t.i.d., 8 weeks): +46% | T/E2 Ratio % Δ ([4]; 300 mg, 24 weeks): +58% | T/E2 Ratio % Δ ([4]; 300 mg, 48 weeks): +46% | T/E2 Ratio % Δ ([4]; 400 mg, 48 weeks): +54% | T/E2 Ratio % Δ ([4]; 600 mg, 24 weeks): +61% | achieved T/E2 versus calculated "youthful" target range ([4]; daily dose of 100 mg): target range is generally readily met | achieved T/E2 versus calculated "youthful" target range ([4]; higher dosages (above 100 mg daily)): somewhat above the target range | alteration of the testosterone/estradiol ratio ([4]; varying dosages, periods of up to 48 weeks): significant alteration of the testosterone/estradiol ratio in favor of testosterone | peripheral estrogen reduction (patients with BPH [5]; daily doses of 100 mg-600 mg): equally intense | testosterone concentration after longer-term treatment (patients with BPH [5]; treatment lasting 24 to 48 weeks, patients with BPH): significant increase

CC/C(=C(/CC)c1ccc(O)cc1)c1ccc(O)cc1 [diethylstilbestrol]
testosterone level in the serum [6]: castration level
